Assay results published in patent publication US20260130901A1, “CGRP RECEPTOR ANTAGONIST FOR THE TREATMENT OF MIGRAINE” (ALLERGAN PHARMACEUTICALS INTERNATIONAL LIMITED, priority 2022, published 2026).

Tests used:
[1] = tested on: participants with migraine (qualifying prodrome events); assay: Phase 3 crossover study: safety and tolerability, adverse events (safety population); format: in vivo, human
Protocol: (§1) A phase 3, multicenter, randomized, double-blind, placebo-controlled, crossover study was carried out to evaluate the efficacy, safety, and tolerability of oral ubrogepant in the acute treatment of migraine when administered during the prodrome. The study evaluated whether treatment during the initial phase of a migraine attack (i.e., the prodrome or premonitory phase) prior to the onset of headache, can attenuate the severity of the headache phase and reduce disability.
(§2) Eligible participants were randomized (1:1) to treatment sequences A or B in this crossover study. Participants randomized to Treatment Sequence A received placebo to treat their first qualifying prodrome event and ubrogepant 100 mg to treat their second qualifying prodrome event. For those randomized to Treatment Sequence B, they received the reverse: ubrogepant 100 mg to treat their first qualifying prodrome event and placebo to treat their second qualifying prodrome event.
Participant flow is illustrated in FIG. 2. The safety population included all treated participants who took at least one administration of study drug. The modified intent-to-treat (mITT) population included all randomized participants with at least one assessment of headache occurrence within 24 hours after taking double-blind study drug for at least one qualifying prodrome event. The most common reasons for failure to meet inclusion criteria were: lack of 3 to 16 recorded qualifying prodrome events during screening (144 of 317), failure to report headache of any intensity within 1 to 6 hours following at least 75% of qualifying prodrome events (123 of 317), and participant provided a negative response for the ability (by history) to identify migraine attacks in which prodromal symptoms were present and reliably (at least 75% of the time) followed by headache within 1 to 6 hours (23 of 317
Tables 20 and 21 provide an overall summary of adverse events during the double-blind treatment period for the safety population.
The most common TEAEs (≥2% in either treatment group) within 48 hours following administration of study intervention were nausea (placebo 15 of 462 [3.2%], ubrogepant 23 of 456 [5.0%]); dizziness (placebo 12 of 462 [2.6%], ubrogepant 11 of 456 [2.4%]), fatigue (placebo 7 of 462 [1.5%], ubrogepant 12 of 456 [2.6%]) and somnolence (placebo 5 of 462 [1.1%], ubrogepant 11 of 456 [2.4%]). Nausea (placebo 3.7%, ubrogepant 5.3%) was also the most common TEAE within 30 days following administration of study intervention.

[2] = tested on: participants with migraine (qualifying prodrome events); assay: Phase 3 crossover study: ability to function normally (Functional Disability Scale); format: in vivo, human; conditions: 100 mg in prodrome, mITT
Protocol: as §1, §2
The primary efficacy endpoint was the absence of a headache of moderate/severe intensity within 24 hours after taking double-blind study intervention during the prodrome. The secondary efficacy endpoints were the absence of a headache of moderate or severe intensity within 48 hours, ability to function normally over 24 hours, and absence of a headache of any intensity within 24 hours after taking double blind study interventions during the prodrome.
A responder for ability to function normally is a participant having a score of 0 (no disability, able to function normally) on the Functional Disability Scale (FDS), and a non-responder is one having a score of 1 (Mildly impaired, can still do everything but with difficulty) to 3 (Severely impaired, cannot do all or most things, bed rest may be necessary).

[3] = 100 mg, within 48 hours following administration
[4] = 100 mg, within 48 hours following administration, safety population
[5] = ubrogepant 100 mg (N = 456), within 48 hours following administration, safety population
[6] = ubrogepant 100 mg (N = 456), within 30 days following administration, safety population

C[C@@H]1[C@H](c2ccccc2)C[C@H](NC(=O)c2cnc3c(c2)C[C@@]2(C3)C(=O)Nc3ncccc32)C(=O)N1CC(F)(F)F [Ubrogepant, (3′S)—N-((3S,5S,6R)-6-methyl-2-oxo-5-phenyl-1-(2,2,2-trifluoroethyl)piperidin-3-yl)-2′-oxo-1′,2′,5,7-tetrahydrospiro[cyclopenta[b]pyridine-6,3′-pyrrolo[2,3-b]pyridine]-3-carboxamide]
Safety results ([1]; 100 mg in prodrome): generally consistent with the known safety profile of ubrogepant
Tolerability ([1]; 100 mg in prodrome): well-tolerated
nausea, fatigue, dizziness, and somnolence, % of participants reporting ([1]; 100 mg in prodrome): ≤ 5%
TEAE dizziness, % of participants [1, 3]: 2.4%
TEAE fatigue, % of participants [1, 3]: 2.6%
TEAE nausea, % of participants [1, 3]: 5.0%
TEAE somnolence, % of participants [1, 3]: 2.4%
Adverse event leading to discontinuation (ADO), % of participants [1, 4]: (0.0) %
Death, % of participants [1, 4]: (0.0) %
Treatment-emergent Serious adverse events (TESAE), % of participants [1, 4]: (0.0) %
Treatment-emergent adverse events (TEAE), % of participants [1, 4]: (16.9) %
Treatment-related TEAEs, % of participants [1, 4]: (13.2) %
Treatment-related TESAEs, % of participants [1, 4]: (0.0) %
TEAE nausea, % of participants ([1]; 100 mg, within 30 days following administration): 5.3%
Discontinuation during the DB treatment period due to adverse events ([1]; safety population): No participant was discontinued
TEAE Dizziness, % [1, 5]: (2.4) %
TEAE Fatigue, % [1, 5]: (2.6) %
TEAE Nausea, % [1, 5]: (5.0) %
TEAE Somnolence, % [1, 5]: (2.4) %
Adverse event leading to discontinuation (ADO), % [1, 6]: (0.0) %
Death, % [1, 6]: (0.0) %
TEAE Dizziness, % [1, 6]: (2.4) %
TEAE Fatigue, % [1, 6]: (2.6) %
TEAE Nausea, % [1, 6]: (5.3) %
TEAE Somnolence, % [1, 6]: (2.4) %
Treatment-emergent Serious adverse events (TESAE), % [1, 6]: (0.0) %
Treatment-emergent adverse events (TEAE), % [1, 6]: (19.7) %
Treatment-related TEAEs, % [1, 6]: (13.2) %
Treatment-related TESAEs, % [1, 6]: (0.0) %
Ability to function normally, Nonresponder (%) ([2]; 1 hour post dose): (74.4) %
Ability to function normally, Odds Ratio vs. Placebo ([2]; 1 hour post dose): 1.29
Ability to function normally, Responder (%) ([2]; 1 hour post dose): (25.6) %
Ability to function normally, Nonresponder (%) ([2]; 2 hours post dose): (63.0) %
Ability to function normally, Odds Ratio vs. Placebo ([2]; 2 hours post dose): 1.73
Ability to function normally, Responder (%) ([2]; 2 hours post dose): (37.0) %
Ability to function normally, Responder (%) ([2]; 2 hours post dose, listed as ubrogepant): 37.0%
Ability to function normally, Nonresponder (%) ([2]; 3 hours post dose): (51.7) %
Ability to function normally, Odds Ratio vs. Placebo ([2]; 3 hours post dose): 1.71
Ability to function normally, Responder (%) ([2]; 3 hours post dose): (48.3) %
Ability to function normally, Nonresponder (%) ([2]; 4 hours post dose): (41.0) %
Ability to function normally, Odds Ratio vs. Placebo ([2]; 4 hours post dose): 1.97
Ability to function normally, Responder (%) ([2]; 4 hours post dose): (59.0) %
Ability to function normally, Nonresponder (%) ([2]; 6 hours post dose): (32.7) %
Ability to function normally, Odds Ratio vs. Placebo ([2]; 6 hours post dose): 1.78
Ability to function normally, Responder (%) ([2]; 6 hours post dose): (67.3) %
Ability to function normally, Nonresponder (%) ([2]; 8 hours post dose): (25.0) %
Ability to function normally, Odds Ratio vs. Placebo ([2]; 8 hours post dose): 1.84
Ability to function normally, Responder (%) ([2]; 8 hours post dose): (75.0) %
Ability to function normally, Nonresponder (%) ([2]; 24 hours post dose): (11.1) %
Ability to function normally, Odds Ratio vs. Placebo ([2]; 24 hours post dose): 1.41
Ability to function normally, Responder (%) ([2]; 24 hours post dose): (88.9) %
Ability to function normally over 24 hours, Geometric Mean Odds Ratio vs. Placebo ([2]; overall, all timepoints through 24 hours): 1.66
